# Reference: patent publication US12448373B2, “Azetidinyl-acetamides as CXCR7 inhibitors” (CHEMOCENTRYX, INC., priority 2021, dated 2025)
# Molecular target: T1, CXCR7 (Homo sapiens, UniProt P25106)
# T1 construct: expressed in transfected cells; host or cells: CHO cells (CHO-CXCR7), transgenes maintained with Hygromycin B and G418
# Assay: CXCR7 β-arrestin recruitment assay in CHO-CXCR7 cells (ProLink/EA β-galactosidase complementation), induced by human SDF-1a
# Format: cell-based
# Conditions: assay buffer, SDF-1a at EC50 concentration
# Procedure, shortened: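 CHO cells co-expressing ProLink-tagged CXCR7 and β-arrestin-EA were pre-plated overnight, then given compound and human SDF-1α at its same-day EC50. After 1.5 h at 37 °C, complemented β-galactosidase was read from 0.4 mM 3-carboxyumbelliferyl β-D-galactopyranoside (30 min, 37 °C; ex 360/em 465 nm). IC50 by 3-parameter fit.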
# T1 sequence (P25106 whole entry): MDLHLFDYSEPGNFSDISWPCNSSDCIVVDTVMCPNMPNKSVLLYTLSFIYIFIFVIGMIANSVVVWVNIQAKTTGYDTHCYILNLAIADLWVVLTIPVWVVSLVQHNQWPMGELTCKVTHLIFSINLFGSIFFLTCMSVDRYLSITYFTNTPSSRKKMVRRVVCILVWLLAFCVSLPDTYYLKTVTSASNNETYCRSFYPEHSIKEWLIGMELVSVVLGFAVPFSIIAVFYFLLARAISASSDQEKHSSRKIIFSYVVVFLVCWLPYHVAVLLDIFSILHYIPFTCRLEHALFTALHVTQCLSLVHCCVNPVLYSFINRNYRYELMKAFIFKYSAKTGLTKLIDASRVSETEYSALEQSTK
row,SMILES,IC50 [nM]
1,Cc1ccc(F)c(C(C)(C)NC(=O)CC2(NC(=O)c3cc(-c4ccc(F)cc4F)on3)CN([C@H]3CC[C@](C)(O)CC3)C2)n1 [Example 1.008],< 5
2,CC(C)(NC(=O)CC1(NC(=O)c2cc(-c3ccc(F)cc3F)on2)CN(C2CCCCC2(F)F)C1)c1ccccn1 (centres unmarked) [Example 1.311],5 to 100
3,CC(C)(NC(=O)CC1(NC(=O)c2cc(-c3ccc(F)cc3F)on2)CN(CC2CC2)C1)c1ccccn1 [Example 1.327],5 to 100
4,COc1ccccc1C(C)(C)NC(=O)CC1(NC(=O)c2cc(-c3ccc(F)cc3F)on2)CN(C2CCC(C)(O)CC2)C1 (centres unmarked) [Example 1.241],< 5
5,Cc1cc(C(C)(C)NC(=O)CC2(NC(=O)c3cc(-c4ccc(F)cc4F)on3)CN(CC3CC3)C2)ccn1 [Example 1.114],5 to 100
6,CC(C)(NC(=O)CC1(NC(=O)c2cc(-c3ccc(F)cc3F)on2)CN([C@H]2CC[C@@](C)(O)CC2)C1)c1ccc(F)cc1 [Example 1.259],5 to 100
7,Cc1cc(C(C)(C)NC(=O)CC2(NC(=O)c3cc(-c4ccc(F)cc4F)on3)CN(CC3(C)COC3)C2)ccn1 [Example 1.151],5 to 100
8,CC(C)(NC(=O)CC1(NC(=O)c2cc(-c3ccc(F)cc3F)on2)CN([C@H]2CC[C@](C)(O)CC2)C1)c1c(F)cccc1F [Example 1.258],100 to 1000
9,CC(C)(O)CN1CC(CC(=O)NC(C)(C)c2ccc(F)cc2)(NC(=O)c2cc(-c3ccc(F)cc3F)on2)C1 [Example 1.248],100 to 1000
10,COc1cccnc1C(C)(C)NC(=O)CC1(NC(=O)c2nnc(-c3ccc(F)cc3F)s2)CN([C@H]2CC[C@](C)(O)CC2)C1 [Example 1.009],5 to 100
11,Cc1cccc(C(C)(C)NC(=O)CC2(NC(=O)c3cc(-c4ccc(F)cc4F)on3)CN([C@H]3CC[C@](C)(O)CC3)C2)c1 [Example 1.237],< 5
12,COc1cccc(C(C)(C)NC(=O)CC2(NC(=O)c3cc(-c4ccc(F)cc4F)on3)CN([C@H]3CC[C@@](C)(O)CC3)C2)n1 [Example 1.203],< 5
13,COc1cc(C(C)(C)NC(=O)CC2(NC(=O)c3cc(-c4ccc(F)cc4F)on3)CN([C@H]3CC[C@](C)(O)CC3)C2)ccn1 [Example 1.189],< 5
14,Cc1cccc(C(C)(C)NC(=O)CC2(NC(=O)c3cc(-c4ccc(F)cc4F)on3)CN(CC(C)C)C2)n1 [Example 1.026],5 to 100
15,CC(C)(NC(=O)CC1(NC(=O)c2cc(-c3ccc(F)cc3F)on2)CN(C2CCCCC2)C1)c1ccc(Cl)nc1 [Example 1.284],5 to 100
16,CC(C)(NC(=O)CC1(NC(=O)c2cc(-c3ccc(F)cc3F)on2)CN([C@H]2CC[C@](C)(O)CC2)C1)c1cc(F)cc(F)c1 [Example 1.153],< 5

row,SMILES,IC50 [nM]
1,CC(C)(NC(=O)CC1(NC(=O)c2nnc(-c3ccc(F)cc3F)s2)CN([C@H]2CC[C@](C)(O)CC2)C1)c1ccccn1 [Example 1.063],5 to 100
2,O=C(CC1(NC(=O)c2cc(-c3ccc(F)cc3F)on2)CN(C2CCOCC2)C1)NC1(c2ncccn2)CC1 [Example 1.328],100 to 1000
3,COc1cc(Cl)cc(C(C)(C)NC(=O)CC2(NC(=O)c3cc(-c4ccc(F)cc4F)on3)CN(CC(C)(C)O)C2)c1 [Example 1.154],< 5
4,Cc1cccc(C(C)(C)NC(=O)CC2(NC(=O)c3nnc(-c4ccc(F)cc4F)s3)CN([C@H]3CC[C@](C)(O)CC3)C2)n1 [Example 1.032],< 5
5,Cc1ccc(C(C)(C)NC(=O)CC2(NC(=O)c3cc(-c4ccc(F)cc4F)on3)CN(C3CCCCC3)C2)cn1 [Example 1.281],5 to 100
6,CC(C)(NC(=O)CC1(NC(=O)c2cc(-c3ccc(F)cc3)on2)CN([C@H]2CC[C@](C)(O)CC2)C1)c1ccccc1 [Example 1.091],5 to 100
7,COc1cccc(C(C)(C)NC(=O)CC2(NC(=O)c3cc(-c4ccc(F)cc4F)on3)CN([C@H]3CC[C@](C)(O)CC3)C2)c1F [Example 1.196],100 to 1000
8,CC(C)(NC(=O)CC1(NC(=O)c2cc(-c3ccc(F)cc3F)on2)CN(c2ccccn2)C1)c1ccccn1 [Example 1.314],1000 to 20000
9,CC(C)(NC(=O)CC1(NC(=O)c2nnc(-c3ccc(F)cc3F)s2)CN([C@H]2CC[C@](C)(O)CC2)C1)c1cc(Cl)cc(C#N)c1 [Example 1.345],5 to 100
10,CC(C)(NC(=O)CC1(NC(=O)c2cc(-c3ccc(F)cc3F)on2)CN([C@H]2CC[C@](C)(O)CC2)C1)c1cccnc1 [Example 1.194],5 to 100
11,CC(C)(NC(=O)CC1(NC(=O)c2cc(-c3ccc(F)cc3F)on2)CN([C@H]2CC[C@@](C)(O)CC2)C1)c1ccccc1F [Example 1.227],< 5
12,O=C(CC1(NC(=O)c2cc(-c3ccc(F)cc3F)on2)CN(C2CCCCC2)C1)N[C@@H](C(=O)O)c1ccccc1 [Example 1.282],1000 to 20000
13,CC(C)(NC(=O)CC1(NC(=O)c2cc(-c3ccc(F)cc3F)on2)CN(C2CCCCC2)C1)c1cccc(F)c1 [Example 1.301],< 5
14,CC(C)(NC(=O)CC1(NC(=O)c2cn(-c3ccc(F)cc3F)nn2)CN(C2CCCCC2)C1)c1ccccn1 [Example 1.075],5 to 100
15,CC(C)(NC(=O)CC1(NC(=O)c2cc(-c3ccc(F)cc3F)on2)CN([C@H]2CC[C@](C)(O)CC2)C1)c1ccnc2[nH]ccc12 [Example 1.101],5 to 100
16,O=C(CC1(NC(=O)c2cc(-c3ccc(F)cc3F)on2)CN(C2CCCC2)C1)NC1(c2ncccn2)CC1 [Example 1.331],5 to 100
